Laboratory results reported in patent US20250051276A1 (priority 2021, published 2025).

Assays:
5HT2A sensor [1] = settings: cited from earlier work
5HT2A sensor [2] = settings: cited from earlier work; remark: listed apart in the source
rat cortical neurons = experiment: Neurite outgrowth in primary neuronal cultures assay; format: cell-based; parameters: key: A: Statistically significant mean increase as a percent of DMSO control at 10 μM or less; B: No statistically significant mean increase as a percent of DMSO control at 10 μM or less; settings: 72 h, vs DMSO control, 10 μM or less
Description: Neurite Outgrowth in Primary Neuronal Cultures Assay. Changes in the pattern of neurite outgrowth have been implicated in psychiatric and neurodegenerative disorders as well as traumatic injuries. The discovery of new compounds that can positively affect neuritogenesis are important for developing new therapeutics for neurological diseases. Measurement of neurite outgrowth of rat cortical neurons using an automated image-based assay was used to determine the neuroplastic effects of the compounds of the present disclosure. The neurite outgrowth assay was performed at Neurofit SAS (France) as described below.
Pregnant Wistar rats (Janvier; France) were used for the study. They were delivered 6 days before their use. Upon arrival at Neurofit animal facility, they were housed one per cage and maintained in a room with controlled temperature (21-22° C.) and a reversed light-dark cycle (12 h/12 h; lights on: 17:30-05:30; lights off: 05:30-17:30) with food and water available ad libitum.
Female Wistar rats of 17 days gestation were killed by cervical dislocation and the fetuses were removed from the uterus. Their brains were placed in ice-cold medium of Leibovitz (L15, Gibco, Fisher bioblock, France). Cortices were dissected and meninges were carefully removed. The cortical neurons were dissociated by trypsinization for 30 min at 37° C. (trypsin-EDTA, Gibco) in presence of 0.1 mg/ml DNAse I (Roche, France). The reaction was stopped by addition of Dulbecco's Modified Eagle Medium (DMEM; Gibco) with 10% of fetal bovine serum (FBS; Gibco). The suspension was triturated with a 10-ml pipette and using a needle syringe 21 G and centrifuged at 350×g for 10 min at room temperature. The pellet of dissociated cells was resuspended in a medium consisting of Neurobasal (Gibco) supplemented with 2% B27 supplement (Gibco), 0.5 mM L-Glutamine (Gibco), an antibiotic-antimicotic mixture. Viable cells were counted in a Neubauer cytometer using the trypan blue exclusion test (Sigma). Cells were seeded at a density of 10000 cells per well in 96-well plate (Costar) precoated with poly-L-lysine. Test compound at different concentrations were added to the cultures. Donepezil (positive control) was tested at 250 nM.
After 72 h (3 days) of plating, cultures were fixed with paraformaldehyde in PBS (4%, Sigma) for 30 min at 4° C. Then, cells were successively permeabilized with 0.1% Triton X100 for 30 min, saturated with PBS containing 3% of BSA and were incubated 1 h with anti-beta III tubulin antibody (Sigma) at 1/10 000 in PBS containing 0.5% of BSA. Cells were washed three times with PBS containing 0.5% of BSA, and they were incubated 1 h with goat anti-mouse antibody coupled with AF488 (Invitrogen A11001) diluted at 1/1000 in PBS containing 0.5% of BSA. Finally, nuclei were staining with DAPI 1 mg/ml at 1/1000 in PBS containing 0.5% of BSA. After rinsing with PBS, the plate was filmed and neurite networks were examined and analyzed using High-Content Screening (CellInsight, Thermo Scientific). The average number of neurites per neuron and the average total length of neurites per neuron were the main parameters analyzed. Analysis of data was performed using analysis of variance (ANOVA). The Fisher's Protected Least Significant Difference test was used for multiple comparisons. A p value ≤0.05 was considered significant. The software used is StatView 5.0 from SAS Institut.

5-HT2A [3] = molecular target: T1, 5-HT2A (Homo sapiens, UniProt P28223); experiment: Serotonin 5-HT2A in vitro cellular IPOne agonism assay; format: cell-based; parameters: host or cells: CHO-K1; settings: CHO-K1 cells, IPOne HTRF, agonist mode
T1 sequence (P28223 whole entry): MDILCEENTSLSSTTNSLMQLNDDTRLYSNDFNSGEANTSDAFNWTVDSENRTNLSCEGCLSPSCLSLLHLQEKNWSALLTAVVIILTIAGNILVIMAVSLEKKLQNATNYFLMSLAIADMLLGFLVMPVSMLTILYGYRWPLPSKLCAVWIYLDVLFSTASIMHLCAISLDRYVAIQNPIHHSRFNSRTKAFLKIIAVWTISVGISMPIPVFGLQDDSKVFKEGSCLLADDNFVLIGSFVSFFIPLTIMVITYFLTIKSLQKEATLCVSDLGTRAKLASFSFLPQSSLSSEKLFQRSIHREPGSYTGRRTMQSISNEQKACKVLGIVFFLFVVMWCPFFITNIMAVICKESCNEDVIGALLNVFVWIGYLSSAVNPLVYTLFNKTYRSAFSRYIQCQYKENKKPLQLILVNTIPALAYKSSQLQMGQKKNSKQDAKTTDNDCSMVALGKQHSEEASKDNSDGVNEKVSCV
Description: (§1) Serotonin 5-HT2A In Vitro Cellular IPOne Agonism Assay. The 5-HT2A IPOne HTRF assay was performed at Epics Therapeutics S.A. (Belgium, FAST-0505I) using conventional methods. Briefly, CHO-K1 cells expressing human recombinant 5-HT2A receptor grown to mid-log phase in culture media without antibiotics were detached with PBS-EDTA, centrifuged, and resuspended in medium without antibiotics buffer. 20,000 cells were distributed in a 96 well plate and incubated overnight at 37° C. with 5% CO2.
For agonist testing, the medium was removed and 20 μl of assay buffer plus 20 μl of test compound or reference agonist are added in each well. The plate is incubated for 60 min. at 37° C. with 5% CO2.
(§2) After addition of the lysis buffer containing IP1-d2 and anti-IP1 cryptate detection reagents, plates were incubated 1-hour at room temperature, and fluorescence ratios were measured according to the manufacturer specification, with the HTRF kit.

5-HT2A [4] = molecular target: T1, 5-HT2A; experiment: Serotonin 5-HT2A in vitro cellular IPOne antagonism assay; format: cell-based; parameters: host or cells: CHO-K1; settings: CHO-K1 cells, IPOne HTRF, reference agonist a-Me-5HT; read-out: 5-HT2A IPOne Antagonist Activity
Description: as §1, with “IPOne Antagonism” for “IPOne Agonism”, “5-HT2A TPOne” for “5-HT2A IPOne”, “FAST-0505I) in antagonism mode” for “FAST-0505I)”, “with […]” for “with 5%”
For antagonist testing, a reference agonist a-Me-5HT was added and fluorescence signal monitored for several minutes, followed by addition of 20 μl of assay buffer plus 20 μl of test compound or reference antagonist ketanserin, in each well. The plate was incubated for 60 min. at 37° C. with 5% CO2.
as §2

5-HT2A [5] = molecular target: T1, 5-HT2A; experiment: Serotonin 5-HT2A in vitro radioligand binding competition assay; parameters: purchased Epics Therapeutics S.A. (Belgium) FAST-0505B; host or cells: membrane extracts; settings: radiotracer [3H]-DOI, membrane extracts
Description: Serotonin 5-HT2A In Vitro Radioligand Binding Competition Assay. The 5-HT2A radioligand binding competition assay was performed at Epics Therapeutics S.A. (Belgium, FAST-0505B) using conventional methods. Briefly, competition binding was performed in duplicate in the wells of a 96 well plate (Master Block, Greiner, 786201) containing binding buffer (optimized for each receptor), membrane extracts (amount of protein/well optimized for each receptor), radiotracer [^3H]-DOI (final concentration optimized for each receptor) and test compound. Nonspecific binding was determined by co-incubation with 200-fold excess of cold competitor. The samples were incubated in a final volume of 0.1 ml at a temperature and for a duration optimized for each receptor and then filtered over filter plates. Filters were washed six times with 0.5 ml of ice-cold washing buffer (optimized for each receptor) and 50 µl of Microscint 20 (Packard) were added in each well. The plates were incubated 15 min on an orbital shaker and then counted with a TopCount™ for 1 min/well.

Structure (SMILES) | activation of the 5HT2A sensor assay in agonist mode (5HT2A sensor [1]) | competition with 5-HT in the 5HT2A sensor assay in antagonist mode (5HT2A sensor [2]) | Increase in Neurite Length (rat cortical neurons) | Increase in Neurite Number (rat cortical neurons) | Increase in Number of Branchpoints (rat cortical neurons) | EC50 (5-HT2A [3]) [µM] | IC50 (5-HT2A [4]) [nM] | IC50 (5-HT2A [5]) [nM]
CCN(CC)C(=O)[C@@H]1C=C2c3cccc4[nH]c(Br)c(c34)C[C@H]2N(C)C1 [BOL148] | do not activate the 5HT2A sensor assay in agonist mode | can compete with 5HT binding to 5HT2A | – | – | – | – | – | –
C[C@H](Cn1ccc2nc(OCc3ccccc3)ccc21)N(C)C [Compound 1, (R)-1-(5-(benzyloxy)-1H-pyrrolo[3,2-b]pyridin-1-yl)-N,N-dimethylpropan-2-amine] | – | – | A | A | A | > 10 | 101 to 1000 | 101 to 1000
C[C@@H](N)Cn1ccc2nc(OCc3ccccc3)ccc21 [Compound 2, (R)-1-(5-(benzyloxy)-1H-pyrrolo[3,2-b]pyridin-1-yl)propan-2-amine] | – | – | – | – | – | > 10 | – | > 10000
C[C@H](Cn1ccc2cc(OCc3ccccc3)ccc21)N(C)C [Compound 3, (R)-1-(5-(benzyloxy)-1H-indol-1-yl)-N,N-dimethylpropan-2-amine] | – | – | A | B | B | > 10 | 10 to 100 | 101 to 1000
CN[C@H](C)Cn1ccc2cc(OCc3ccccc3)ccc21 [Compound 4, (R)-1-(5-(benzyloxy)-1H-indol-1-yl)-N-methylpropan-2-amine] | – | – | A | A | A | > 10 | 101 to 1000 | 1000 to 10000
C[C@@H](N)Cn1ccc2cc(OCc3ccc(F)cc3)ccc21 [Compound 5, (R)-1-(5-((4-fluorobenzyl)oxy)-1H-indol-1-yl)propan-2-amine] | – | – | B | B | B | 1 to 10 | 101 to 1000 | 101 to 1000
C[C@@H](N)Cn1ccc2cc(OCc3cccc(F)c3)ccc21 [Compound 6, (R)-1-(5-((3-fluorobenzyl)oxy)-1H-indol-1-yl)propan-2-amine] | – | – | A | B | A | 1 to 10 | 101 to 1000 | 101 to 1000
CCN(CC)CCc1c[nH]c2cc(F)ccc12 [Compound 6-F-DET, 6-F-DET] | do not activate the 5HT2A sensor assay in agonist mode | can compete with 5HT binding to 5HT2A | – | – | – | – | – | –
C[C@@H](N)Cn1ccc2cc(OCc3ccccc3F)ccc21 [Compound 7, (R)-1-(5-((2-fluorobenzyl)oxy)-1H-indol-1-yl)propan-2-amine] | – | – | B | A | A | 1 to 10 | – | 1000 to 10000
C[C@H](Cn1ccc2cc(OCc3ccc(F)cc3)ccc21)N(C)C [Compound 8, (R)-1-(5-((4-fluorobenzyl)oxy)-1H-indol-1-yl)-N,N-dimethylpropan-2-amine] | – | – | A | A | A | > 10 | < 10 | 10 to 100
C[C@H](Cn1ccc2cc(OCc3cccc(F)c3)ccc21)N(C)C [Compound 9, (R)-1-(5-((3-fluorobenzyl)oxy)-1H-indol-1-yl)-N,N-dimethylpropan-2-amine] | – | – | A | A | A | > 10 | 10 to 100 | 101 to 1000
C[C@H](Cn1ccc2cc(OCc3ccccc3F)ccc21)N(C)C [Compound 10, (R)-1-(5-((2-fluorobenzyl)oxy)-1H-indol-1-yl)-N,N-dimethylpropan-2-amine] | – | – | A | A | A | > 10 | 101 to 1000 | 10 to 100
CCN(CC)[C@H](C)Cn1ccc2cc(OCc3ccccc3)ccc21 [Compound 11, (R)-1-(5-(benzyloxy)-1H-indol-1-yl)-N,N-diethylpropan-2-amine] | – | – | A | A | A | > 10 | 101 to 1000 | 1000 to 10000
C[C@H](Cn1ccc2cc(OCc3ccccc3)ccc21)N1CCCC1 [Compound 12, (R)-5-(benzyloxy)-1-(2-(pyrrolidin-1-yl)propyl)-1H-indole] | – | – | A | A | B | > 10 | 101 to 1000 | 1000 to 10000
CN(C)CCc1c[nH]c2ccccc12 [DMT, N,N-dimethyltryptamine] | activate the 5HT2A sensor assay in agonist mode | – | – | – | – | – | – | –
COc1cc(CC(C)N)c(OC)cc1I (stereo not drawn) [DOI] | activate the 5HT2A sensor assay in agonist mode | – | – | – | – | – | – | –
CN[C@H](C)Cc1ccc2c(c1)OCO2 [L-MDMA] | do not activate the 5HT2A sensor assay in agonist mode | – | – | – | – | – | – | –
CCN(CC)C(=O)[C@@H]1C=C2c3cccc4[nH]cc(c34)C[C@H]2N(C)C1 [LSD] | activate the 5HT2A sensor assay in agonist mode | – | – | – | – | – | – | –
